# Measurements from ChEMBL document CHEMBL4732177 (J Med Chem, 2021).
# pEC50, pKi: −log10 of the molar value. The source made the active and inactive calls. Numbered stars: 1 amine (or outer) side, 2 acyl side, 3 side chain; on linkers, the order of the positions; unused ones are H or OH. Bridge positions count the residues as written; N and C are the ends. Square brackets hold non-standard residues; d marks the D form. Peptide text beside a SMILES is read from it. ξ: configuration not given here. X3 = NCCCC[C@H](N)CN([C@@H](CCCCN)C(=O)[*:2])[*:1]; NMeR = CN[C@@H](CCCNC(=N)N)C(=O)O; Aad = N[C@@H](CCCC(=O)O)C(=O)O; Pen = CC(C)(S)[C@H](N)C(=O)O; Tle = CC(C)(C)[C@H](N)C(=O)O; ξP = O=C(O)C1CCCN1
# Key:
# Rattus norvegicus [1] = experiment: Antinociceptive activity in Sprague-Dawley rat model of formalin-induced nociception pain assessed as reduction in pain behaviour by measuring less lifting of formalin injected hind paw during inflammatory phase at 30 to 150 microg/kg, IT; type: functional, organism-based; settings: dose 30-150 µg/kg, time 21-60 min
# [2] = Cardiotoxicity in Sprague-Dawley rat assessed as induction of […] at 1 mg/kg, iv measured up to 1000 seconds; type: toxicity, organism-based; settings: in vivo, 0.2778 h, time 1000 sec
# [3] = target: T1, Neurotensin receptor type 2 (Homo sapiens, UniProt O95665); experiment: Displacement of [125I]Tyr3-neurotensin from human recombinant NTS2 stably expressed in human 1321N1 cell membranes incubated for 60 mins by gamma counter analysis; parameters: species or system Cell membrane
# Rattus norvegicus [4] = experiment: Antinociceptive activity in Sprague-Dawley rat model assessed as maximum efficacy causing increase in tail withdrawal latency administered intrathecally measured every 10 mins for 60 mins by radiant heat tail-flick test; type: functional; settings: 1 h
# Rattus norvegicus [5] = experiment: Antinociceptive activity in Sprague-Dawley rat model assessed as effective dose administered intrathecally and measured every 10 mins for 60 mins by radiant heat tail-flick test; type: functional; settings: central, 1 h
# [6] = Cardiotoxicity in Sprague-Dawley rat assessed as decrease in mean arterial blood pressure at 0.01 to 1 mg/kg, iv measured up to 1000 seconds; type: toxicity, organism-based; settings: in vivo, dose 0.01-1 mg/kg, time <=1000 sec
# Ileum [7] = experiment: Myorelaxant activity in Sprague-Dawley rat ileum assessed as reduction in carbachol-induced contractions at 10 ^-11 to 10^-5 M by force transducer relaxation assay; type: tissue-based; settings: dose lower 1e-05 µM, dose upper 10 µM
# Rattus norvegicus [8] = experiment: Antinociceptive activity in Sprague-Dawley rat model of formalin-induced nociception pain assessed as reduction in pain behaviour by measuring less lifting of formalin injected hind paw during acute phase at 30 to 150 microg/kg, IT measured for 9 mins; type: functional, organism-based; settings: dose 30-150 µg/kg
# Rattus norvegicus [9] = experiment: Antinociceptive activity in Sprague-Dawley rat model assessed as maximum possible effect at 150 microg/kg, IT measured every 10 mins for 60 mins by radiant heat tail-flick test relative to control; type: functional; settings: dose 150 µg/kg, 1 h
# Rattus norvegicus [10] = experiment: Antinociceptive activity in Sprague-Dawley rat model assessed as maximum possible effect at 90 microg/kg, IT measured every 10 mins for 60 mins by radiant heat tail-flick test relative to control; type: functional; settings: dose 90 µg/kg, 1 h
# [11] = Stability of compound in rat CSF assessed as half life at 1 mM incubated for 24 hrs by UPLC-MS analysis; type: ADME, tissue-based, Cerebrospinal fluid
# [12] = Cardiotoxicity in Sprague-Dawley rat assessed as decrease in mean arterial blood pressure at 0.1 mg/kg, iv measured up to 1000 seconds; type: toxicity, organism-based; settings: in vivo, time <=1000 sec
# [13] = Induction of hypothermia in Sprague-Dawley rat assessed as reduction in body temperature at 150 microg/kg, IT measured every 10 mins upto 60 mins by thermistor probe analysis; settings: in vivo, icv_or_intrathecal, 0.15 mg/kg, dose 150 µg/kg
# Rattus norvegicus [14] = experiment: Antinociceptive activity in Sprague-Dawley rat model assessed as maximum possible effect at 30 microg/kg, IT measured every 10 mins for 60 mins by radiant heat tail-flick test relative to control; type: functional; settings: dose 30 µg/kg, 1 h
# Rattus norvegicus [15] = experiment: Antinociceptive activity in Sprague-Dawley rat model assessed as maximum possible effect at 60 microg/kg, IT measured every 10 mins for 60 mins by radiant heat tail-flick test relative to control; type: functional; settings: dose 60 µg/kg, 1 h
# Rattus norvegicus [16] = experiment: Antinociceptive activity in Sprague-Dawley rat model assessed as maximum possible effect at 10 microg/kg, IT measured every 10 mins for 60 mins by radiant heat tail-flick test relative to control; type: functional; settings: dose 10 µg/kg, 1 h
# [17] = Stability of compound in rat plasma assessed as half life at 1 mM incubated for 1 to 20 mins by UPLC-MS analysis; type: ADME, cell-free; settings: time 1-20 min
# [18] = target: T2, Neurotensin receptor type 1 (Homo sapiens, UniProt P30989); experiment: Displacement of [125I]Tyr3-neurotensin from human recombinant NTS1 stably expressed in CHO-K1 cell membranes incubated for 60 mins by gamma counter analysis; parameters: species or system Cell membrane
# Rattus norvegicus [19] = experiment: Antinociceptive activity in Sprague-Dawley rat model assessed as effective dose administered intrathecally and co-treated with opioid antagonist naloxone and measured every 10 mins for 60 mins by radiant heat tail-flick test; type: functional, organism-based
# Rattus norvegicus [20] = experiment: Antinociceptive activity in Sprague-Dawley rat model assessed as increased in tail withdrawal latency administered intrathecally measured every 10 mins for 60 mins by radiant heat tail-flick test; type: functional, organism-based; settings: dose 10-150 µg/kg
# Rattus norvegicus [21] = experiment: Antiallodynic activity in Sprague-Dawley rat model of complete Freund's adjuvant-induced chronic inflammatory pain assessed as increase in paw withdrawl threshold at 150 microg/kg, IT dosed on day 7 and 14 measured at 15 to 120 mins post dose relative to control; type: functional; settings: dose 150 µg/kg; time 7-14 day
# [22] = target: T2, Neurotensin receptor type 1; experiment: Displacement of [3H]-neurotensin from NTS1 in human HT-29 cell membrane incubated for 20 mins by liquid scintillation counter analysis; type: cell membranes
# [23] = target: Neurotensin receptor type 1 (Mus musculus, UniProt O88319); experiment: Displacement of [3H]-neurotensin from NTS1 in mouse brain membrane incubated for 30 mins by liquid scintillation counter analysis; type: cell membranes
# Rattus norvegicus [24] = species: Rattus norvegicus; experiment: animal or person; settings: Sprague-Dawley, sc, 1 h
# Description: Antinociceptive activity in Sprague-Dawley rat model assessed as effective dose administered subcutaneously and measured every 10 mins for 60 mins by radiant heat tail-flick test
# Rattus norvegicus [25] = experiment: Antinociceptive activity in Sprague-Dawley rat model administered subcutaneously and measured every 10 mins for 60 mins by radiant heat tail-flick test; type: functional, organism-based; settings: dose 1-10 mg/kg
# Rattus norvegicus [26] = experiment: Antinociceptive activity in Sprague-Dawley rat model assessed as maximum possible effect at 10 mg/kg, sc measured every 10 mins for 60 mins by radiant heat tail-flick test relative to control; type: functional; settings: 1 h
# [27] = target: T2, Neurotensin receptor type 1; experiment: Displacement of [125I]Tyr3-neurotensin from human recombinant NTS1 stably expressed in CHO cell membranes; parameters: species or system Cell membrane
# [28] = Toxicity in Sprague-Dawley rat assessed as induction of drowsiness at 1 microg/kg, IT; settings: in vivo, icv_or_intrathecal, 0.001 mg/kg, dose 1 µg/kg
# [29] = Toxicity in Sprague-Dawley rat assessed as induction of ataxia at 1 microg/kg, IT; settings: in vivo, icv_or_intrathecal, 0.001 mg/kg, dose 1 µg/kg
# Rattus norvegicus [30] = experiment: Antinociceptive activity in Sprague-Dawley rat model of formalin-induced nociception pain assessed as reduction in pain behaviour by measuring less lifting of formalin injected hind paw during inflammatory phase at 1 microg/kg, IT; type: functional, organism-based; settings: dose 1.0 µg/kg
# Rattus norvegicus [31] = experiment: Antinociceptive activity in Sprague-Dawley rat model of formalin-induced nociception pain assessed as reduction in pain behaviour by measuring less lifting of formalin injected hind paw during acute phase at 1 microg/kg, IT measured for 9 mins; type: functional, organism-based; settings: dose 1.0 µg/kg
# [32] = Toxicity in Sprague-Dawley rat assessed as induction of hyperactivity at 1 microg/kg, IT; settings: in vivo, icv_or_intrathecal, 0.001 mg/kg, dose 1 µg/kg
# [33] = Toxicity in Sprague-Dawley rat assessed as induction of abnormal gait at 1 microg/kg, IT; settings: in vivo, icv_or_intrathecal, 0.001 mg/kg, dose 1 µg/kg
# [34] = Toxicity in Sprague-Dawley rat assessed as induction of dizziness at 1 microg/kg, IT; settings: in vivo, icv_or_intrathecal, 0.001 mg/kg, dose 1 µg/kg
# [35] = Toxicity in Sprague-Dawley rat assessed as induction of tremor at 1 microg/kg, IT; settings: in vivo, icv_or_intrathecal, 0.001 mg/kg, dose 1 µg/kg
# [36] = target: T1, Neurotensin receptor type 2; experiment: Binding affinity to NTS2 (unknown origin)
# Ileum [37] = experiment: Myorelaxant activity in Sprague-Dawley rat ileum assessed as reduction in carbachol-induced contractions by force transducer relaxation assay; type: functional, tissue-based
# [38] = Induction of hypothermia in Sprague-Dawley rat assessed as drop in body temperature at 30 microg/kg, IT measured every 10 mins upto 60 mins by thermistor probe analysis; settings: in vivo, icv_or_intrathecal, 0.03 mg/kg, dose 30 µg/kg
# T2 sequence (P30989 whole entry): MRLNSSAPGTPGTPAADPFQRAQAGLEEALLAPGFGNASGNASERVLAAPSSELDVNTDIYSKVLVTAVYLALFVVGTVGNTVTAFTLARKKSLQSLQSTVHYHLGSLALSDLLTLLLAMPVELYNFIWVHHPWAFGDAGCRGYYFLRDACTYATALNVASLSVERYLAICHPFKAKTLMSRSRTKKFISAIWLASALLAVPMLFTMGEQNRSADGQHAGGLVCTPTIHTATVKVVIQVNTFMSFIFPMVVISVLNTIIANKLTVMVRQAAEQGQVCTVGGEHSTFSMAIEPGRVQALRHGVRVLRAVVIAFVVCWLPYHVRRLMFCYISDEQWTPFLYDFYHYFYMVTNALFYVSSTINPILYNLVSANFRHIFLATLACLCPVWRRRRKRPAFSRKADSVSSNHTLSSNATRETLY
# T1 sequence (O95665 whole entry): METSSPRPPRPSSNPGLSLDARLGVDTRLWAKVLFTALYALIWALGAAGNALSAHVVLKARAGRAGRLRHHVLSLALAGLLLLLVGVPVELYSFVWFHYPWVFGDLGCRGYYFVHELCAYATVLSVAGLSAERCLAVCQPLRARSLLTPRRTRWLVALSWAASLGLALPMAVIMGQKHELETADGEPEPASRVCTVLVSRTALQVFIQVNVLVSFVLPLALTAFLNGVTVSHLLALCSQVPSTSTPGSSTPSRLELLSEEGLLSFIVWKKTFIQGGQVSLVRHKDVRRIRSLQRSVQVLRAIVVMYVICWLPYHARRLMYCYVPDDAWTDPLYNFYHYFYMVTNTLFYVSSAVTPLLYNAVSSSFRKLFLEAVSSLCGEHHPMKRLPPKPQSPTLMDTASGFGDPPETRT
# Sequence of Neurotensin receptor type 1 (Mus musculus, UniProt O88319) (O88319 whole entry): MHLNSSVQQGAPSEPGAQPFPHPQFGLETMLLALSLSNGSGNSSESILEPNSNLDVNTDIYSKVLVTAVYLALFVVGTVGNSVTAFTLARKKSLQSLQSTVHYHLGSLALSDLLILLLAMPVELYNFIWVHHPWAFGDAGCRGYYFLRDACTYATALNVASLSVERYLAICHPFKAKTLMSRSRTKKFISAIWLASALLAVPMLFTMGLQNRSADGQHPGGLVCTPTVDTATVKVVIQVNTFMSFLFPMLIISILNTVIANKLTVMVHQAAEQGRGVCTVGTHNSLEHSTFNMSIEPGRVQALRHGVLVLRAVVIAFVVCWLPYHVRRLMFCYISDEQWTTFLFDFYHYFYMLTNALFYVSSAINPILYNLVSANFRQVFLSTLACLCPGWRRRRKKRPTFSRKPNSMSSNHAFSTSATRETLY
smiles,measurement,setting,value
CC(C)C[C@H](NC(=O)[C@H](Cc1ccc(O)cc1)NC(=O)[C@@H]1C/C=C\C[C@H](N)C(=O)N[C@@H](CCCCN)C(=O)N[C@@H](CCCCN)C(=O)N1)C(=O)O,Activity,Rattus norvegicus [1],Active
same,Activity,[2],Toxic
same,pKi,[3],7.30
same,Emax,Rattus norvegicus [4],90 µg/kg
same,ED50,Rattus norvegicus [5],0.0438 mg/kg
same,Activity,[6],Non-Toxic
same,Activity,Ileum [7],Non-Toxic
same,Activity,Rattus norvegicus [8],Active
same,MPE,Rattus norvegicus [9],98.5%
same,MPE,Rattus norvegicus [10],98.6%
same,half-life at 1000 µM,[11],> 1440 min
same,Activity,[12],Non-Toxic
same,Activity,[13],Non-Toxic
same,MPE,Rattus norvegicus [14],32.5%
same,MPE,Rattus norvegicus [15],73.1%
same,MPE,Rattus norvegicus [16],13.1%
same,half-life at 1000 µM,[17],15 min
same,pKi,[18],< 4.00
same,Activity,Rattus norvegicus [19],Active
same,Activity,Rattus norvegicus [20],Dose-dependent effect
same,Activity,Rattus norvegicus [21],<=45%
CC(C)C[C@H](NC(=O)[C@@H]1CCC(=O)NCC(=O)N(C)[C@@H](CCCNC(=N)N)C(=O)N[C@@H](CCCCN)C(=O)N2CCCC2C(=O)N[C@@H](Cc2c[nH]c3ccccc23)C(=O)N1)C(=O)O (some centres not stated) (G[NMeR]K[ξP]WEL-OH; lactam N-6),pKi,[22],5.46
CN[C@@H](CCCNC(=N)N)C(=O)N[C@H]1CSSC(C)(C)[C@@H](C(=O)N[C@@H](CC(C)C)C(=O)O)NC(=O)[C@H](Cc2c[nH]c3ccccc23)NC(=O)[C@@H]2CCCN2C1=O (H-[NMeR]CPW[Pen]L-OH; disulfide 2-5),pKi,[23],7.08
CN1CC[C@]23c4c5ccc(O)c4O[C@H]2[C@@H](O)C=C[C@H]3[C@H]1C5 [MORPHINE],ED50,Rattus norvegicus [24],3.6 mg/kg
same,Activity,Rattus norvegicus [25],Dose-dependent effect
same,MPE,Rattus norvegicus [26],83.3%
CC[C@H](C)[C@H](NC(=O)[C@@H]1Cc2ccc(cc2)OCCCCCC(=O)N[C@H](CCCNC(=N)N)C(=O)N2CCC[C@H]2C(=O)N1)C(=O)N[C@@H](CC(C)C)C(=O)O,pKi,[27],6.35
CSCC[C@@H]1NC(=O)[C@H](CC(C)C)NC(=O)[C@H](CCCNC(=N)N)NC(=O)[C@H](CO)NC(=O)[C@@H]2CSSC[C@@H]3NC(=O)[C@H](CO)NC(=O)CNC(=O)[C@H]([C@@H](C)O)NC(=O)[C@H](CSSC[C@H](N)C(=O)N[C@@H](CCCCN)C(=O)NCC(=O)N[C@@H](CCCCN)C(=O)NCC(=O)N[C@@H](C)C(=O)N[C@@H](CCCCN)C(=O)N2)NC(=O)[C@H](CSSC[C@@H](C(N)=O)NC(=O)[C@H](CCCCN)NC(=O)CNC(=O)[C@H](CO)NC(=O)[C@H](CCCNC(=N)N)NC3=O)NC(=O)[C@H](CC(=O)O)NC(=O)[C@H](Cc2ccc(O)cc2)NC1=O [ZICONOTIDE],Activity,[28],Toxic
same,Activity,[29],Toxic
same,Activity,Rattus norvegicus [30],Active
same,Activity,Rattus norvegicus [31],Active
same,Activity,[32],Toxic
same,Activity,[33],Toxic
same,Activity,[34],Toxic
same,Activity,[35],Toxic
CC[C@H](C)[C@H](NC(=O)[C@@H]1Cc2ccc(O)c(c2)C/C=C/CCCCCC[C@H](N)C(=O)N[C@@H](CCCCN)C(=O)N2CCC[C@H]2C(=O)N1)C(=O)N[C@@H](CC(C)C)C(=O)O,pKi,[36],7.62
CC[C@H](C)[C@H](NC(=O)[C@@H]1Cc2ccc(O)c(c2)C/C=C/CNCCCC[C@H](N)C(=O)N[C@@H](CCCCN)C(=O)N2CCC[C@H]2C(=O)N1)C(=O)N[C@@H](CC(C)C)C(=O)O,pKi,[36],4.96
CC[C@H](C)[C@H](NC(=O)[C@@H]1Cc2ccc(O)c(c2)C/C=C/CNCCC[C@H](N)C(=O)N[C@@H](CCCCN)C(=O)N2CCC[C@H]2C(=O)N1)C(=O)N[C@@H](CC(C)C)C(=O)O,MPE,Rattus norvegicus [9],50%
same,pKi,[36],8.35
CC[C@H](C)[C@H](NC(=O)[C@H](Cc1ccc(O)cc1)NC(=O)[C@@H]1CCCN1C(=O)[C@H](CCCNC(=N)N)NC(=O)[C@@H](N)CCCNC(=N)N)C(=O)N[C@@H](CC(C)C)C(=O)O,Activity,Ileum [37],Dose-dependent effect
same,pEC50,Ileum [37],8.41
same,half-life at 1000 µM,[11],894 min
same,Activity,[12],<= 50 mmHg
same,half-life at 1000 µM,[17],1.6 min
CC[C@H](C)[C@H](NC(=O)[C@@H]1Cc2ccc(O)c(c2)C/C=C/CCCCCCC(=O)N[C@@H](CCCCN)C(=O)N2CCC[C@H]2C(=O)N1)C(=O)N[C@@H](CC(C)C)C(=O)O,pKi,[36],< 9.00
CC(C)C[C@H](NC(=O)[C@@H]1CCCC(=O)N[C@@H](CCCNC(=N)N)C(=O)N[C@@H](CCCCN)C(=O)N2CCC[C@H]2C(=O)N[C@@H](Cc2c[nH]c3ccccc23)C(=O)N1)C(=O)O (RKPW[Aad]L-OH; lactam N-5),pKi,[23],7.80
CCOC(=O)[C@H](CC(C)C)NC(=O)[C@@H](NC(=O)[C@H](Cc1c[nH]c2ccccc12)NC(=O)[C@@H]1CCCN1C(=O)[C@H](CCCCN)NC[C@@H](N)CCCCN)C(C)(C)C (H-[X3]PW[Tle]L-OEt),deltaT,[38],3 °C
